Data on nine molecules can be found in ChEMBL document CHEMBL1649107, “Sulfonate-containing thiiranes as selective gelatinase inhibitors” (ACS Med Chem Lett, 2011).

pKi: −log10 of the molar value. ≈ marks a conversion by molar mass, not a printed value. Calls of active or inactive are those of the source. The calls are words filed in the database; no cut-off is given here.

Data set [1] addresses T1, Matrix metalloproteinase-9 (Homo sapiens, UniProt P14780). Nature of the data set: Inhibition of human recombinant MMP9 catalytic domain assessed as dissociation rate constant by substrate hydrolysis based fluorescence spectrophotometry.
Data set [2] has as its target T2, Matrix metalloproteinase-14 (Homo sapiens, UniProt P50281). Nature of the data set: Inhibition of human recombinant MMP14 catalytic domain by substrate hydrolysis based fluorescence spectrophotometry.
The nature of data set [3]: Half life in rat liver microsomes at 100 uM by HPLC. The format is ADME, Microsome. A general note: Liver microsomes are a subcellular fraction often used to study metabolism.
Data set [4] can be described thus: Intrinsic clearance in rat liver microsomes at 100 uM by HPLC. The format is ADME, Microsome.
Data set [5] addresses T3, Matrilysin (Homo sapiens) (UniProt P09237).
T3 sequence (whole entry): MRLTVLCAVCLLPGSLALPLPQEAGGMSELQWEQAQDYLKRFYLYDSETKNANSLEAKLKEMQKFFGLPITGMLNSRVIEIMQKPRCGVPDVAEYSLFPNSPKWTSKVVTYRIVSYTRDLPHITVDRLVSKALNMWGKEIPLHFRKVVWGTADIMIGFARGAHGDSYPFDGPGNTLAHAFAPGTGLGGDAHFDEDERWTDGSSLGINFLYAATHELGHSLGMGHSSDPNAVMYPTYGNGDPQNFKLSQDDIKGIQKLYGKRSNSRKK
Nature of the data set: Inhibition of human recombinant MMP7 catalytic domain assessed as dissociation rate constant by substrate hydrolysis based fluorescence spectrophotometry.

The target of data set [6] is T2, Matrix metalloproteinase-14. Nature of the data set: Inhibition of human recombinant MMP14 catalytic domain assessed as dissociation rate constant by substrate hydrolysis based fluorescence spectrophotometry.
Data set [7] has as its target T4, Stromelysin-1 (Homo sapiens, UniProt P08254). Nature of the data set: Inhibition of human recombinant MMP3 catalytic domain at 200 uM by substrate hydrolysis based fluorescence spectrophotometry.
Target sequence in this assay (P08254 100-477 limits assumed): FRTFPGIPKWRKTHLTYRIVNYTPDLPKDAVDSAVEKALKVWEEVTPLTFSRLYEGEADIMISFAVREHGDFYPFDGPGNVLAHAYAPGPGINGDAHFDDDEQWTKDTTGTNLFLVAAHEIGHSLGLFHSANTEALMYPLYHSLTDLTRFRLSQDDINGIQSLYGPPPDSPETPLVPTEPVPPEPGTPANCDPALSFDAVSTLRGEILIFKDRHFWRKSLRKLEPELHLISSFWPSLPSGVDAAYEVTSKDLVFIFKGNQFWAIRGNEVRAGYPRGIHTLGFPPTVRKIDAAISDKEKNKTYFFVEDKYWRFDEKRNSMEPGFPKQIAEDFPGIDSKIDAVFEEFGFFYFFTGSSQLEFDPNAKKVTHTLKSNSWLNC
Data set [8] in a line: Half life in rat liver microsomes at 200 uM by HPLC. The format is ADME, Microsome.
Data set [9] in a line: Intrinsic clearance in rat liver microsomes at 200 uM by HPLC. The format is ADME, Microsome.
A further data set concerns the target T5, Interstitial collagenase (Homo sapiens, UniProt P03956).
T5 sequence (P03956 whole entry): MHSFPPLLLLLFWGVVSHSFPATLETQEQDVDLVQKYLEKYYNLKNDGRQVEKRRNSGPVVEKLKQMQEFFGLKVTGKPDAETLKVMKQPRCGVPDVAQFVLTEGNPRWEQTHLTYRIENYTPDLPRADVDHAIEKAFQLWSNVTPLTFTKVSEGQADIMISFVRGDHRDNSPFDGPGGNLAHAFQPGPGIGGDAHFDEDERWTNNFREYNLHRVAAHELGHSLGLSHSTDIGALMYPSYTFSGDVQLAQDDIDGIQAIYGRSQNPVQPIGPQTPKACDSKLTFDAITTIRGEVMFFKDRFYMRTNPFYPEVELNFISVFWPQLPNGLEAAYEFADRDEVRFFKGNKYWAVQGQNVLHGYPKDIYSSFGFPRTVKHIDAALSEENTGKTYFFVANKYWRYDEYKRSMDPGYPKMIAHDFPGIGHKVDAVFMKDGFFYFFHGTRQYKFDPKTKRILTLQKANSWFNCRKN

Data set [10] has as its target 72 kDa type IV collagenase (Homo sapiens, UniProt P08253).
Description: Inhibition of MMP2 by substrate hydrolysis based fluorescence spectrophotometry
Another data set has as its target T6, Matrilysin (Homo sapiens, UniProt P09237).
T6 sequence (P09237 whole entry): T3 sequence (whole entry)

The target of data set [11] is T1, Matrix metalloproteinase-9.
Description: Inhibition of human recombinant MMP9 catalytic domain by substrate hydrolysis based fluorescence spectrophotometry
A short description of the next data set: physchem. To be noted: aqueous.
Data set [12] addresses T7, Interstitial collagenase (Homo sapiens) (UniProt P03956).
T7 sequence (whole entry): T5 sequence (P03956 whole entry)
Briefly: Inhibition of human recombinant MMP1 catalytic domain at 200 uM by substrate hydrolysis based fluorescence spectrophotometry.

The target in data set [13] is T4, Stromelysin-1.
Target sequence in this assay (P08254 whole entry, the tested form may be a part): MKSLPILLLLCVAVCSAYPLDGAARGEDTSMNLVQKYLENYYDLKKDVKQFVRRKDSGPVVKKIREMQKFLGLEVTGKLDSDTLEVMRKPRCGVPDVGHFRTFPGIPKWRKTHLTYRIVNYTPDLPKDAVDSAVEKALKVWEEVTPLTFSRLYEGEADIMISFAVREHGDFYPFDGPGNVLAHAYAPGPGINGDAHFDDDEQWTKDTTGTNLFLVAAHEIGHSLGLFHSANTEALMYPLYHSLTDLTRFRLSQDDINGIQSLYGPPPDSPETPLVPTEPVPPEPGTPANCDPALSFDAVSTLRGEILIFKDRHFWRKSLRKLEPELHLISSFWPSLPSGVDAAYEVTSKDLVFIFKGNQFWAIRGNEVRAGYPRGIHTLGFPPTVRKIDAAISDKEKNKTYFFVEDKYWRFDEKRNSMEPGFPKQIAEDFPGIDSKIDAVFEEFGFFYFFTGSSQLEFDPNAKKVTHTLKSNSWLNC
Description: Inhibition of human recombinant MMP3 catalytic domain by substrate hydrolysis based fluorescence spectrophotometry
Data set [14] concerns the target T4, Stromelysin-1. Nature of the data set: Inhibition of human recombinant MMP3 catalytic domain at 20 uM by substrate hydrolysis based fluorescence spectrophotometry.
Target sequence in this assay (P08254 100-477 limits assumed): as the sequence (P08254 100-477 limits assumed) above
In data set [15] the target is T7, Interstitial collagenase (Homo sapiens). Nature of the data set: Inhibition of human recombinant MMP1 catalytic domain at 30 uM by substrate hydrolysis based fluorescence spectrophotometry.
Data set [16] deals with T3, Matrilysin (Homo sapiens). Briefly: Inhibition of human recombinant MMP7 catalytic domain at 30 uM by substrate hydrolysis based fluorescence spectrophotometry.
Data set [17] has as its target T7, Interstitial collagenase (Homo sapiens). Nature of the data set: Inhibition of human recombinant MMP1 catalytic domain at 40 uM by substrate hydrolysis based fluorescence spectrophotometry.
Data set [18] concerns the target T3, Matrilysin (Homo sapiens). Nature of the data set: Inhibition of human recombinant MMP7 catalytic domain at 40 uM by substrate hydrolysis based fluorescence spectrophotometry.
Data set [19] addresses T7, Interstitial collagenase (Homo sapiens). Briefly: Inhibition of human recombinant MMP1 catalytic domain at 20 uM by substrate hydrolysis based fluorescence spectrophotometry.
Data set [20] concerns the target T3, Matrilysin (Homo sapiens). Nature of the data set: Inhibition of human recombinant MMP7 catalytic domain at 20 uM by substrate hydrolysis based fluorescence spectrophotometry.

Chain of 72 kDa type IV collagenase (P08253 whole entry): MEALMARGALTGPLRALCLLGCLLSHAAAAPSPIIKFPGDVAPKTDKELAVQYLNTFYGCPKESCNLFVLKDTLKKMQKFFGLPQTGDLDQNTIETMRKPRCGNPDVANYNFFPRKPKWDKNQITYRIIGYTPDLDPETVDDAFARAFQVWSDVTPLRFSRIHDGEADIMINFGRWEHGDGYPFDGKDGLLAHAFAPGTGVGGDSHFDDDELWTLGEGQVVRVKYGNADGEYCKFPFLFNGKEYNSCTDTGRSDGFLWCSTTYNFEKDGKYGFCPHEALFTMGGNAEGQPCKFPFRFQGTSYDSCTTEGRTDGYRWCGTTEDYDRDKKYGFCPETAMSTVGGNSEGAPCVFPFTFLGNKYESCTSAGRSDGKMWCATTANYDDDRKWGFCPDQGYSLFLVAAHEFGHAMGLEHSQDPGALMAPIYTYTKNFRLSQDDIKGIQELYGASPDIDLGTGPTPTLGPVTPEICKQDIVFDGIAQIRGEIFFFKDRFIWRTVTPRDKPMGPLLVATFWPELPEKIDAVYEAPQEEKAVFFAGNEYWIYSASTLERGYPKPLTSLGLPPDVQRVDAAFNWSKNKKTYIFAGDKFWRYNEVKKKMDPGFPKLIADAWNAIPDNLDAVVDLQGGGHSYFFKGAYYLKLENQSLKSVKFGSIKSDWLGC
T1 sequence (P14780 whole entry, the tested form may be a part): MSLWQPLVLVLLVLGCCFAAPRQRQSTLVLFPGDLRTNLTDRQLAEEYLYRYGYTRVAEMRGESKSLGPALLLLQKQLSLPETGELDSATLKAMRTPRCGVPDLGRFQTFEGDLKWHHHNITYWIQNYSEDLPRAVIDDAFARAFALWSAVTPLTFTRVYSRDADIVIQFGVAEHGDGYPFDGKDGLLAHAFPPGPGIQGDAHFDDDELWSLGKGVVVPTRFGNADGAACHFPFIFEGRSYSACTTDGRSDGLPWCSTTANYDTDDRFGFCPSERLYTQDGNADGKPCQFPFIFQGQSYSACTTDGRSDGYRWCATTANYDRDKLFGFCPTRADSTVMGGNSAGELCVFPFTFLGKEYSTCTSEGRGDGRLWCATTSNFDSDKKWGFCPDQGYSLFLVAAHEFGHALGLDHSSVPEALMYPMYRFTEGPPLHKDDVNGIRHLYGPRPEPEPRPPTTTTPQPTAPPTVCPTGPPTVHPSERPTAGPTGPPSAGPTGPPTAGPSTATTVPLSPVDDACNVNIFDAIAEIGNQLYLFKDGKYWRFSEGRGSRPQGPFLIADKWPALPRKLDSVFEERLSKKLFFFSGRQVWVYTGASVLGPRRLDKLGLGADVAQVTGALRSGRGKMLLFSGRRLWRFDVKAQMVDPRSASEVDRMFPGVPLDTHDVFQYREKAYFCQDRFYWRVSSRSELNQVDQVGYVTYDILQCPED
Description for physchem: Aqueous solubility of the compound

`O=S(=O)(CC1CS1)c1ccc(Oc2ccccc2)cc1` (stereo not given): the Activity in data set [1] turned out to be 7.1 ×10⁻³ /s. For the same molecule, the negative logarithm of the Ki (pKi) (in general, the Ki on a negative log10 scale, so that one unit is a factor of ten) in data set [2] is 6.96. For the same molecule, in data set [3], the half-life (commonly the time in which the quantity being followed falls by half) at 100 µM came out at 12 min. The CLint scaled (in general, a measure of how fast metabolising enzymes remove a compound, apart from limits set by blood flow) at 100 µM in data set [4] was 117 mL/min/kg.

On to `CS(=O)(=O)Oc1ccc(S(=O)(=O)CC2CS2)cc1` (stereo not given), for which the Activity in data set [5] stood at 0.5 ×10⁻³ /s; in data set [1], 0.25 ×10⁻³ /s; in data set [6], 0.2 ×10⁻³ /s. The negative logarithm of the Ki (pKi) in data set [2] was 6.32; on Interstitial collagenase, 4.39; in data set [10], 6.41; on Matrilysin, 4.96; in data set [11], 5.41. Further, on Stromelysin-1 [7], the inhibition (as a rule, the share of the control response that was lost under treatment) was found to be 29%. Besides, in data set [8], the half-life at 200 µM is 45.3 min. Further, the CLint scaled at 200 µM in data set [9] is 31 mL/min/kg. The solubility (as a rule, the concentration that dissolves in the medium under given conditions) in the data set “physchem” is 167 µg/mL (≈ 542 µM).

As to `CCS(=O)(=O)Oc1ccc(S(=O)(=O)CC2CS2)cc1` (stereo not given), the Activity in data set [5] was found to be 0.6 ×10⁻³ /s; in data set [1] it was 1.8 ×10⁻³ /s; in data set [6], 1.6 ×10⁻³ /s. Further, the pKi in data set [2] was 4.96; in data set [10] it was 7.05; on Matrilysin, 4.59; in data set [11], 4.92. The inhibition at Stromelysin-1 [7] is 62%; in data set [12] it was 7%. In data set [8], this molecule returned a half-life at 200 µM of 31.8 min. Besides, the CLint scaled at 200 µM in data set [9] was 44.2 mL/min/kg. The molecule also had a solubility in the data set “physchem” of 114 µg/mL (≈ 354 µM).

Take `CS(=O)(=O)Oc1ccc(Oc2ccc(S(=O)(=O)CC3CS3)cc2)cc1` (stereo not given): the Activity in [1] amounted to 0.1 ×10⁻³ /s. The half-life at 100 µM in data set [3] stood at 24.8 min. For the same molecule, in [4], the intrinsic clearance (CLint scaled) at 100 µM is 56.5 mL/min/kg. For the same molecule, on Stromelysin-1 [13], the negative logarithm of the Ki (pKi) is 6.22. In the data set “physchem”, this molecule came in with a solubility of 3.5 µg/mL (≈ 8.74 µM).

Take `CCCS(=O)(=O)Oc1ccc(S(=O)(=O)CC2CS2)cc1` (stereo not given): the Activity in data set [5] amounted to 0.8 ×10⁻³ /s; in [1] it was 0.9 ×10⁻³ /s; in [6], 1.5 ×10⁻³ /s. Moreover, the negative logarithm of the Ki (pKi) in data set [2] was 4.49; in [10] it was 6.55; on Matrilysin, 4.46; in data set [11], 5.21. Besides, the inhibition turned out to be 58% on Stromelysin-1 [7] and 30% in data set [12]. The molecule further yielded a half-life at 200 µM in data set [8] of 29.8 min. The molecule also gave an intrinsic clearance (CLint scaled) at 200 µM in data set [9] of 47.2 mL/min/kg. The molecule further had a solubility in “physchem” of 96 µg/mL (≈ 285 µM).

Consider `CC(C)CS(=O)(=O)Oc1ccc(Oc2ccc(S(=O)(=O)CC3CS3)cc2)cc1` (stereo not given), for which the Activity in data set [1] and in [6] was 2 ×10⁻³ /s each time. The pKi was 6.10 in [2], 7.21 in data set [10] and 6.42 in [11]. Moreover, the inhibition at Stromelysin-1 [14] was 5%. In addition, the inhibition result in data set [15] and in data set [16] was “inactive” in each case. Besides, the half-life at 100 µM in data set [3] is 16.2 min. The intrinsic metabolic clearance (CLint scaled) at 100 µM in data set [4] was 86.5 mL/min/kg. For the same molecule, the concentration in solution in “physchem” (solubility) came to 1.1 µg/mL (≈ 2.49 µM).

In the case of `CCS(=O)(=O)Oc1ccc(Oc2ccc(S(=O)(=O)CC3CS3)cc2)cc1` (stereo not given), the Activity in data set [1] is 1.5 ×10⁻³ /s; in data set [6], 9 ×10⁻³ /s. The pKi is 6.44 in data set [2], 7.15 in [10] and 6.48 in data set [11]. For the same molecule, the inhibition result in data set [17] is “inactive”. For the same molecule, the inhibition came out at 38% on Stromelysin-1 [14] and 8% in data set [18]. This molecule also showed a half-life at 100 µM in [3] of 35.9 min. Also, the CLint scaled at 100 µM in data set [4] was 39 mL/min/kg. The solubility in the data set “physchem” amounted to 4.1 µg/mL (≈ 9.89 µM).

With `CCCS(=O)(=O)Oc1ccc(Oc2ccc(S(=O)(=O)CC3CS3)cc2)cc1` (stereo not given), the Activity in data set [1] is 1.6 ×10⁻³ /s; in data set [6] it was 1.8 ×10⁻³ /s. Besides, the negative-log Ki (pKi) in [2] was 6.62; in data set [10], 7.47; in data set [11] it was 6.28. The inhibition was 22% on Stromelysin-1 [14] and 5% in data set [20]. Further, in data set [19], the inhibition entry is “inactive”. The half-life at 100 µM in data set [3] was found to be 12.6 min. The molecule also showed a CLint scaled at 100 µM in [4] of 111 mL/min/kg. The solubility in the data set “physchem” came to 4 µg/mL (≈ 9.33 µM).

In the case of `CC(C)CS(=O)(=O)Oc1ccc(S(=O)(=O)CC2CS2)cc1` (stereo not given), the Activity in data set [5] worked out at 1.4 ×10⁻³ /s; in data set [1] it was 1.9 ×10⁻³ /s; in [6] it was 1.7 ×10⁻³ /s. For the same molecule, the pKi in data set [2] is 4.70; in data set [10], 6.62; on Matrilysin, 3.92; in [11], 5.46. On Stromelysin-1 [7], the inhibition was found to be 25%. The inhibition result in data set [12] was “inactive”. The half-life at 200 µM in [8] came out at 36.1 min. This molecule gave a CLint scaled at 200 µM in data set [9] of 38.8 mL/min/kg. This molecule showed a solubility in “physchem” of 230 µg/mL (≈ 656 µM).
